We go through three molecules from patent publication US20190314377A1, “TREATMENT OF HEMATOLOGICAL MALIGNANCY WITH SMALL MOLECULE NF-KB INHIBITORS” (MEMORIAL SLOAN-KETTERING CANCER CENTER, priority 2016, published 2019).

In one data set the test system is interleukin 6 (IL-6). The experiment in a line: IL-6 secretion by ELISA in DLBCL and MM cell lines. In kind it is cell-based, human. Particulars: TMD8, HBL1 and U266 cells; 4 and 6 μM; 12 and 24 hours. The procedure:
TMD8, HBL1 and U266 cells were incubated for 24 hours in the presence of empty vehicle or IT-848 (4 and 6 μM). IL-6 concentrations in the culture media were analyzed after 12 and 24 hours by ELISA. Mean and SEM of relative IL-6 levels (percentage of vehicle) are presented.

In data set [1] the test system is NF-κB transcriptional activity. In words: Jurkat/GFP/NF-κB transcriptional reporter assay. In kind it is cell-based. The following applies: 12 hours; 1, 3, 6 and 10 μM. The protocol: Jurkat/GFP/NF-κB transcriptional reporter cells were stimulated with TNF-α and incubated for 8 and 22 hours in the presence of empty vehicle or 1, 3 and 6 μM of IT-848 or IT-878. NF-κB transcriptional activity (GFP mean fluorescence intensity) was analyzed by flow cytometry. Mean and SEM of relative fluorescent intensities are presented.
(§1) Jurkat/GFP/NF-κB transcriptional reporter cells were stimulated with TNF-α, Jurkat/Luciferase/NFAT transcriptional reporter cells were stimulated with PMA/ionomycin, and HepG2/Luciferase/Nrf2-Antioxidant response element (ARE) transcriptional reporter cells were treated with tert-butylhydroquinone. The respective cell lines were incubated for 12 hours in the presence of empty vehicle or 1, 3, 6 and 10 μM of IT-848 or IT-878. NF-κB transcriptional activity was analyzed by flow cytometry, NFAT and Nrf2 transcriptional activities were analyzed by luminescence measurement. Mean and SEM of relative fluorescent or luminescent intensities are presented.
(§2) A NF-κB/Jurkat/GFP transcription reporter cell line was purchased from System Biosciences. NFAT/Jurkat/Luciferase transcriptional reporter cells were generated at Memorial Sloan-Kettering Cancer Center. HepG2/ARE/Luciferase Nrf2 transcriptional reporter cells were purchased from BPS biosciences.
(In general: Reporter assays use an easily measured gene product as a stand-in for the process of interest.)

For data set [2], the system named is Nrf2 transcriptional activity. The experiment in a line: HepG2/Luciferase/Nrf2-ARE transcriptional reporter assay. In kind it is cell-based. The following applies: tert-butylhydroquinone treated; 12 hours; 1, 3, 6 and 10 μM. The protocol:
as §1, §2

Data set [3] is described as follows: Pharmacokinetics, plasma or whole blood levels by LC-MS/MS. Particulars: 5-10 mg/kg PO, IP or IV; in particular after IP or oral administration. In kind it is in vivo. The procedure:
Plasma or whole blood samples were analyzed at several time points after intraperitoneal, intravenous or oral administration of 5-10 mg/kg of IT-848. Samples were analyzed by liquid chromatography-tandem mass spectrometry (LC-MS/MS). IT-848 is cleared slowly after systemic administration.

Another data set has as its system TMD8 cells. The experiment in a line: MTS assay, combination with Panobinostat in TMD8 cells. In kind it is cell-based, human. The following applies: IT-848 4 μM + Panobinostat 0.1 μM; 24 and 48 hours. The protocol: TMD8 and DLBCL cells were incubated for 48 hours in the presence of empty vehicle, IT-848 (4 μM), Panobinostat (0.1 μM), or a combination of IT-848 and Panobinaostat. Cell proliferation was analyzed after 24 and 48 hours by MTS assay. Mean and SEM of relative cell growth are presented.
For orientation: Formazan colour is commonly taken as a measure of viable cells.

The test system of a further data set is MM.1S and U266 cells. In words: ROS levels by DCFDA assay in multiple myeloma cells. In kind it is cell-based, human. The procedure: (§3) MM.1S cells, U266 cells or mouse splenocytes were cultured in the presence of empty vehicle or serial dilutions of IT-848. ROS levels were quantified after 4 hours and 24 hours by DCFDA assay.
(§4) Cells were treated in vitro with IT-848 (compound of Formula I), IT-878 (compound of Formula II) or vehicle solution. Reactive oxygen species (ROS) levels were analyzed by cell labelling with 2′, 7′-dichlorofluorescein diacetate (DCFDA) using a Cellular Reactive Oxygen Species Detection Assay Kit (Abcam, Cambridge, Mass.) ROS levels were analyzed by quantifying the fluorogenic marker DCFDA using flow cytometery (LSR II, BD Bioscience, San Jose, Calif.).

In data set [4] the test system is U266 multiple myeloma cells. The experiment in a line: MTS cell proliferation assay, U266. In kind it is cell-based, human. The following applies: 2, 4 and 6 μM, 24 and 48 hours. The procedure:
U266 human multiple myeloma cells were incubated for 48 hours in the presence of empty vehicle or 2, 4 and 6 μM of IT-848, IT-878, PS-1145, or ibrutinib, Cell proliferation was analyzed after 24 and 48 hours by MTS assay. Mean and SEM or relative cell growth are presented.
(§5) TDM8, Ly19, L363, SUDHL4, MM.1S or U266 cells were independently incubated for up to 48 hours in the presence of empty vehicle, IT-compound (2, 4, 6 μM), PS-1145 (2, 4 and 6 μM), or ibrutinib (2, 4 and 6 μM). Cell growth was measured indirectly after 24 and 48 hours by CellTiter 96 Aqueous Non-Radioactive Cell Proliferation Assay (Promega, Madison, Wis.) per manufacturer's instructions. Briefly, tetrazolium compound [-(4,5-dimethylthiazol-2-yl)-5-(3-carboxymethoxyphenyl)-2-(4-sulfophenyl)-2H-tetrazolium, inner salt; MTS] was added to the culture media and the conversion of MTS into formazon was measured by the amount of 490 nm absorbance. The number of viable cells correlates with absorbance at 490 nm. The results are shown in FIGS. 5A-D. Mean and SEM of relative cell growth are presented.

A further data set has as its system interleukin 10 (IL-10). The experiment in a line: IL-10 secretion by ELISA in DLBCL and MM cell lines. In kind it is cell-based, human. The following applies: TMD8, HBL1 and U266 cells; 4 and 6 μM; 12 and 24 hours. The procedure:
TMD8, HBL1 and U266 cells were incubated for 24 hours in the presence of empty vehicle or IT-848 (4 and 6 μM). IL-10 concentrations in the culture media were analyzed after 12 and 24 hours by ELISA. Mean and SEM of relative IL-10 levels (percentage of vehicle) are presented.
Background: ELISA stands for enzyme-linked immunosorbent assay.

Data set [5] deals with mouse splenocytes. In words: ROS levels by DCFDA assay in mouse splenocytes. In kind it is cell-based. The protocol:
as §3, §4

Data set [6] relates to human peripheral blood mononuclear cells (PBMC). In words: Toxicity to healthy cells (DAPI viability, MTS metabolic activity), human PBMC. In kind it is cell-based. The following applies: 24 hours, 1, 3, 6 and 10 μM. The protocol: (§6) Mouse splenocytes and human peripheral blood mononuclear cells (PBMC) were incubated for 24 hours in the presence of empty vehicle or 1, 3, 6 and 10 μM of IT-848 or IT-878. Viability (percentage of DAPI-negative cells) was analyzed by flow cytometry and metabolic activity was analyzed by MTS assay. Mean and SEM of relative viability or metabolic activity are presented.
(§7) Human peripheral blood mononuclear cells (PBMC) were purified from donor blood according to accepted protocols. Mouse splenocytes were purified from mouse spleen using methods known to those skilled in the art.

Data set [7] concerns NFAT transcriptional activity. In words: Jurkat/Luciferase/NFAT transcriptional reporter assay. In kind it is cell-based. Particulars: PMA/ionomycin stimulated; 12 hours; 1, 3, 6 and 10 μM. The procedure: as §1, §2
Data set [8] concerns MM.1S multiple myeloma cells. In words: MTS cell proliferation assay, MM.1S. The following applies: 2, 4 and 6 μM, 24 and 48 hours. In kind it is cell-based, human. The procedure: MM.1S human multiple myeloma cells were incubated for 48 hours in the presence of empty vehicle or 2, 4 and 6 μM of IT-848, IT-878, PS-1145, or ibrutinib, Cell proliferation was analyzed after 24 and 48 hours by MTS assay. Mean and SEM or relative cell growth are presented.
as §5

For data set [9], the system named is luciferase-expressing MM.1S cells. In words: MM.1S xenograft model of multiple myeloma in NSG mice. In kind it is in vivo, mouse. The following applies: IT-848 10 mg/kg i.p. M/W/F x 4 weeks; Bortezomib 0.5 mg/kg i.p. M/T x 4 weeks. The procedure: NSG mice received 2.5×10^6 luciferase-expressing MM.1S cells intravenously. After 10 days engraftment was confirmed and mice were assigned to four groups: empty vehicle i.p. M/W/F×4 weeks; Bortezomib 0.5 mg/kg i.p. M/T×4 weeks; IT-848 10 mg/kg i.p. M/W/F×4 weeks; Bortezomib M/T+IT-848 M/W/F×4 weeks. A. Tumor growth was analyzed by in vivo bioluminescence imaging. B. Mean and SEM of bioluminescence intensities are presented. N=7-10 The area under the curve (AUC) was used to summarize the bioluminescence intensity for each subject and a permutation test was performed to determine if there was a difference in the AUCs between groups. P values are as follows: Group 1 vs. 2: 0.008; Group 2 vs. 3: 0.032; Group 1 vs 3: <0.001; Group 2 vs 4: <0.001; Group 1 vs 4: <0.001; Group 3 vs 4: 0.029.
In tumor xenograft experiments the bioluminescent signal intensity (BLI) of tumor bearing mice was determined weekly. […] The cause of death (tumor versus toxicity) was determined based on the presence of hind leg paralysis. Death in the absence of hind leg paralysis was attributed to toxicity.
Efficacy studies of IT-848 combined with drugs that are currently used clinically to treat B cell malignancies were also performed. […] Moreover, IT-848 was efficacious in a xenograft model of MM (FIGS. 14, 15A and 15B) and enhanced the efficacy of bortezomib (FIGS. 15A and 15B). Immunodeficient mice received bioluminescent MM.1S cells intravenously and bone marrow engraftment was confirmed by in vivo bioluminescence imaging (BLI) after ten days. Mice were assigned to three treatment groups (IT-848 single agent, bortezomib single agent, combination of IT-848 and bortezomib) and a control group (empty vehicle IP). Onset of hind leg paralysis, which is the clinical endpoint of progressive disease in this model, was delayed in all three treatment groups (FIG. 9).

For data set [10], the system named is mouse splenocytes. In words: Toxicity to healthy cells (DAPI viability, MTS metabolic activity), mouse splenocytes. The following applies: 24 hours, 1, 3, 6 and 10 μM. In kind it is cell-based. The protocol:
as §6, §7

In another data set the test system is HBL1 cells. The experiment in a line: MTS assay, combination with Bortezomib in HBL1 cells. In kind it is cell-based, human. The following applies: IT-848 4 μM + Bortezomib 0.02 μM; 24 and 48 hours. The protocol:
HBL1 human DLBCL cells were incubated for 48 hours in the presence of empty vehicle, IT-848 (4 μM), Bortezomib (0.02 μM), or a combination of IT-848 and Bortezomib. Cell proliferation was analyzed after 24 and 48 hours by MTS assay. Mean and SEM of relative cell growth are presented.

The test system of data set [11] is TMD8 B cell lymphoma cells. The experiment in a line: MTS cell proliferation assay, TMD8. In kind it is cell-based, human. The following applies: 2, 4 and 6 μM, 24 and 48 hours. The protocol:
TMD8 human DLBCL cells were incubated for 48 hours in the presence of empty vehicle or 2, 4 and 6 μM of IT-848, IT-878, PS-1145, or ibrutinib, Cell proliferation was analyzed after 24 and 48 hours by MTS assay. Mean and SEM or relative cell growth are presented.
as §5

The test system of data set [12] is SUDHL4 B cell lymphoma cells. The experiment in a line: MTS cell proliferation assay, SUDHL4. Particulars: 2, 4 and 6 μM, 24 and 48 hours. In kind it is cell-based, human. The procedure:
SUDHL4 human DLBCL cells were incubated for 48 hours in the presence of empty vehicle or 2, 4 and 6 μM of IT-848, IT-878, PS-1145, or ibrutinib, Cell proliferation was analyzed after 24 and 48 hours by MTS assay. Mean and SEM or relative cell growth are presented.
as §5

As to `CCCCCCOc1ccc2cc3c(=O)[nH]c(=O)nc-3oc2c1Cl` [IT-848, 9-chloro-8-(hexyloxy)-2H-chromeno[2,3-d]pyrimidine-2,4(3H)-dione], the “secretion of IL-6” value with interleukin 6 (IL-6) is on record as “decreased”. The “specificity of inhibition of transcriptional activity” value in data set [1] is listed as “specific to NF-kB”. The “effect on Nrf2 transcriptional activity” value in data set [2] is recorded as “spared”. In [3], the clearance result was “slow”. Also, in the data set with TMD8 cells, the “effect on activity of Panobinostat (cell growth, MTS)” value is “enhances the activity”. For the same molecule, the ROS levels result in the data set on MM.1S and U266 cells (after 24 hours) was “decreased levels”; in the data set with MM.1S and U266 cells (after four hours), “unchanged or increased levels”; with mouse splenocytes [5] (after 4 hours) it was “did not alter levels”; with mouse splenocytes [5] (after 24 hours) it was “small increase”. Further, the “cell growth (MTS)” value in [4], in [8], in data set [11] and in [12] was “inhibits growth” throughout. In the data set with interleukin 10 (IL-10), the “secretion of IL-10” value is on record as “decreased”. Besides, the “viability and metabolic activity of healthy cells” value (in [6]; in the data set with mouse splenocytes [10]) was “acceptable level of compromise” in each case. Moreover, the “effect on NFAT transcriptional activity” value in data set [7] is reported as “spared”. For the same molecule, the “onset of hind leg paralysis” value in [9] was “delayed”. In addition, in data set [9], the “tumor growth by in vivo bioluminescence imaging (BLI)” value was “efficacious”. Moreover, in the data set on HBL1 cells, the “effect on activity of Bortezomib (cell growth, MTS)” value is “enhances the activity”.

`COCCCCOc1ccc2cc3c(=O)[nH]c(=O)nc-3oc2c1Cl` [IT-878, 9-chloro-8-(4-methoxybutoxy)-2H-chromeno[2,3-d]pyrimidine-2,4(3H)-dione]: in [1], the “specificity of inhibition of transcriptional activity” value was “specific to NF-kB”. Besides, in data set [2], the “effect on Nrf2 transcriptional activity” value is recorded as “spared”. For the same molecule, the “viability and metabolic activity of healthy cells” value (in [6]; in the data set with mouse splenocytes [10]) was “acceptable level of compromise” each time. The “effect on NFAT transcriptional activity” value in data set [7] is recorded as “spared”.

`CC(C)C[C@H](NC(=O)[C@H](Cc1ccccc1)NC(=O)c1cnccn1)B(O)O` [bortezomib, reference compound]: in data set [9], the “onset of hind leg paralysis” value is “delayed” and the “tumor growth by in vivo bioluminescence imaging (BLI)” value is listed as “efficacious”.
